Assay results published in patent US9737073B2, “Herbicidal weed control from combinations of fluroxypyr and ALS inhibitors” (Dow AgroSciences LLC, priority 2014, dated 2017).

Legend:
Assay type in all cases: in vivo
[1] = tested on: Amaranthus rudis Sauer (common waterhemp, AMATA); assay: Postemergence herbicidal weed control, fluroxypyr-meptyl and chlorimuron-ethyl, field trials (Table 3)
Procedure: (§1) Seeds of the desired test plant species were planted in a peat-based potting soil, Metro-Mix 360® in plastic pots with a surface area of 128 square centimeters (cm^2). Metro-Mix 360® consists of formulated Canadian sphagnum peat moss, coarse perlite, bark ash, a starter nutrient charge (with gypsum), a slow-release nitrogen and dolomitic limestone. The plants were grown for 7-19 days in a greenhouse with an approximate 14-hour (h) photoperiod which was maintained at about 29° C. during the day and 26° C. during the night. Nutrients and water were added on a regular basis and supplemental lighting was provided with overhead metal halide 1000-Watt lamps as necessary. The plants were treated with postemergence foliar applications when they reached the third to fourth true leaf stage. All treatments were applied using a randomized complete block trial design, with 4 replications per treatment.
(§2) Treatments consisted of the compounds as listed in Tables 1 to 4, each compound applied alone and in combination. Commercially formulated products of fluroxypyr-meptyl (STARANE™, 333 grams acid equivalent per liter (g ae/L) EC), diclosulam (SPIDER® 84WG), cloransulam-methyl (FIRSTRATE™ 84WG), chlorimuron-ethyl (CLASSIC® 25WG) and thifensulfuron-methyl (HARMONY® 50SG). Formulated amounts of fluroxypyr-meptyl, diclosulam, cloransulam-methyl, chlorimuron-ethyl and thifensulfuron-methyl were placed in 60 milliliter (mL) glass vials and dissolved in a volume of 30 or 60 mL of a water solution containing Agri-dex crop oil concentrate in a 1% volume per volume (v/v) ratio. Compound requirements are based upon either a 30- or a 60-mL application volume at a rate of 200 liters per hectare (L/ha). Spray solutions of the mixtures were prepared by adding the stock solutions to the appropriate amount of dilution solution to form either a 30- or a 60-mL spray solution with active ingredients in single and two-way combinations. Formulated compounds were applied to the plant material with an overhead Generation III Research Sprayer manufactured by DeVries Manufacturing in Hollandale, Minn., USA. The track sprayer was equipped with an 8003E nozzle calibrated to deliver 200 L/ha at a spray height of 18 inches (43 centimeters (cm)) above average plant canopy.
(§3) The treated plants and untreated control plants were placed in a greenhouse as described above and watered by sub-irrigation to prevent wash-off of the test compounds.
(§4) Treatments were rated at 7 to 21 days after application (DAA) as compared to the untreated control plants. Visual weed control was scored on a scale of 0 to 100 percent where 0 corresponds to no injury and 100 corresponds to complete kill.
(§5) Field trials were conducted using standard herbicide small plot research methodology. Plots varied from 3×3.3 meter (m) to 4.5×10 m (width×length) with 4 replicates per treatment. The crops used in the field trials were grown using normal cultural practices for land preparation, fertilization, seeding and maintenance to ensure good growth of the crop and the weeds.
(§6) All treatments in the field trials were applied using either pressurized air or carbon dioxide (CO2) backpack or bicycle sprayers calibrated to apply 100-187 L/ha spray volume. Flat Fan spray nozzles were used in all trials, with water as the diluent applied at 275-300 kilopascals (kPa). Weed sizes at application ranged from 10 to 40 cm tall. Commercially available products of fluroxypyr-meptyl (STARANE™, 180 and 333 g ae/L EC), diclosulam (SPIDER® 84WG), and thifensulfuron-methyl (HARMONY® 75WG) were mixed in water at appropriately formulated product rates to achieve the desired rates based on a unit area of application (hectare) to achieve the desired rates as shown. No adjuvants were tank-mixed with any treatments applied in the field trials. Treatments were rated at 14-26 days after application as compared to the untreated control plants. […]

[2] = tested on: Abutilon theophrasti (velvetleaf, ABUTH); assay: as above
Procedure: as §1, §2, §3, §4, §5, §6

[3] = tested on: Amaranthus rudis Sauer (common waterhemp, AMATA); assay: Postemergence herbicidal weed control, fluroxypyr-meptyl and diclosulam, greenhouse trials (Table 1)
Procedure: as §1, §2, §3, §4
(§7) Colby's equation was used to determine the herbicidal effects expected from the mixtures (Colby, S. R. Calculation of the synergistic and antagonistic response of herbicide combinations. Weeds 196715, 20-22). A t-test (alpha=0.05) between Colby predictions and observed combinations was used to test for significant differences indicating synergy or antagonism. The results presented in the Tables were significant according to the described criteria.
(§8) The following equation was used to calculate the expected activity of mixtures containing two active ingredients, A and B: Expected=A+B−(A×B/100) • A=observed efficacy of active ingredient A at the same concentration as used in the mixture; • B=observed efficacy of active ingredient B at the same concentration as used in the mixture.

[4] = tested on: Chenopodium album (common lambsquarters, CHEAL); assay: as above
Procedure: as §1, §2, §3, §4, §7, §8

[5] = tested on: Abutilon theophrasti (velvetleaf, ABUTH); assay: as above
Procedure: as §1, §2, §3, §4, §7, §8

[6] = tested on: Chenopodium album (common lambsquarters, CHEAL); assay: Postemergence herbicidal weed control, fluroxypyr-meptyl and thifensulfuron-methyl, field trials (Table 4); settings: 21DAA1, 17.5 g ae/ha
Procedure: as §5
(§9) All treatments in the field trials were applied using either pressurized air or carbon dioxide (CO2) backpack or bicycle sprayers calibrated to apply 100-187 L/ha spray volume. Flat Fan spray nozzles were used in all trials, with water as the diluent applied at 275-300 kilopascals (kPa). Weed sizes at application ranged from 10 to 40 cm tall. Commercially available products of fluroxypyr-meptyl (STARANE™, 180 and 333 g ae/L EC), diclosulam (SPIDER® 84WG), and thifensulfuron-methyl (HARMONY® 75WG) were mixed in water at appropriately formulated product rates to achieve the desired rates based on a unit area of application (hectare) to achieve the desired rates as shown. No adjuvants were tank-mixed with any treatments applied in the field trials. Treatments were rated at 14-26 days after application as compared to the untreated control plants. Visual weed control was scored on a scale of 0 to 100 percent where 0 corresponds to no injury and 100 corresponds to complete kill.
(§10) The treated plots and control plots were rated blind at various intervals after application. Ratings were reported on a Percent (%) Visual Control basis, where 0 corresponds to no visual effect/weed control and 100 corresponds to complete kill of the target weeds.
as §7, §8

[7] = tested on: Polygonum convolvulus L. (wild buckwheat, POLCO); assay: as above; settings: 21DAA1, 17.5 g ae/ha
Procedure: as §5, §9, §10, §7, §8

[8] = tested on: Abutilon theophrasti (velvetleaf, ABUTH); assay: as above; settings: 14DAA1, 100 g ae/ha
Procedure: as §1, §2, §3, §4, §5
(§11) All treatments in the field trials were applied using either pressurized air or carbon dioxide (CO2) backpack or bicycle sprayers calibrated to apply 100-187 L/ha spray volume. Flat Fan spray nozzles were used in all trials, with water as the diluent applied at 275-300 kilopascals (kPa). Weed sizes at application ranged from 10 to 40 cm tall. […]

[9] = tested on: Amaranthus palmeri S. Wats. (Palmer amaranth, AMAPA); assay: as above; settings: 7DAA1, 50 g ae/ha
Procedure: as §1, §2, §3, §4, §5, §11

With `CCCCCCC(C)OC(=O)COc1nc(F)c(Cl)c(N)c1Cl` (stereo not shown) [Fluroxypyr-meptyl, fluroxypyr-methylheptyl ester] the “Fluroxypyr-meptyl Mean % weed control” value ([1]; 7DAA1, 25 g ae/ha) was 25.0%, the “Fluroxypyr-meptyl Mean % weed control” value ([1]; 14DAA1, 25 g ae/ha) was 7.5% and the “Fluroxypyr-meptyl Mean % weed control” value ([2]; 14DAA1, 50 g ae/ha) was 67.0%. The “Fluroxypyr-meptyl Mean % weed control” value ([2]; 14DAA1, 100 g ae/ha) was 80.8%, the “Fluroxypyr-meptyl Mean % weed control” value ([3]; 8DAA1, 50 g ae/ha) was 60.0% and the “Fluroxypyr-meptyl Mean % weed control” value ([3]; 14DAA1, 50 g ae/ha) was 43.8%. For the same compound, the “Fluroxypyr-meptyl Mean % weed control” value ([3]; 14DAA1, 100 g ae/ha) was 37.5%, the “Fluroxypyr-meptyl Mean % weed control” value ([3]; 21DAA1, 50 g ae/ha) was 37.5% and the “Fluroxypyr-meptyl Mean % weed control” value ([3]; 21DAA1, 100 g ae/ha) was 38.8%. The “Fluroxypyr-meptyl Mean % weed control” value ([4]; 8DAA1, 50 g ae/ha) was 43.3%, the “Fluroxypyr-meptyl Mean % weed control” value ([4]; 14DAA1, 50 g ae/ha) was 20.0% and the “Fluroxypyr-meptyl Mean % weed control” value ([4]; 21DAA1, 50 g ae/ha) was 18.3%. For the same compound, the “Fluroxypyr-meptyl Mean % weed control” value ([4]; 21DAA1, 100 g ae/ha) was 21.0%, the “Fluroxypyr-meptyl Mean % weed control” value ([5]; 14DAA1, 25 g ae/ha) was 70.0% and the “Fluroxypyr-meptyl Mean % weed control” value ([5]; 21DAA1, 25 g ae/ha) was 72.5%. The “Fluroxypyr-meptyl Mean % weed control” value [6] was 3.8%, the “Fluroxypyr-meptyl Mean % weed control” value [7] was 2.5% and the “Fluroxypyr-meptyl Mean % weed control” value [8] was 80.8%. The “Fluroxypyr-meptyl Mean % weed control” value [9] was 48.8%.
